In general, EC50 refers to the concentration at which the effect is half-maximal.

The target of assay [1] is T1, PPARα (Homo sapiens, UniProt Q07869).
T1 construct: human PPARα (S167–Y468); expressed in transfected cells; host or cells: HEK293
T1 sequence (Q07869 167-468): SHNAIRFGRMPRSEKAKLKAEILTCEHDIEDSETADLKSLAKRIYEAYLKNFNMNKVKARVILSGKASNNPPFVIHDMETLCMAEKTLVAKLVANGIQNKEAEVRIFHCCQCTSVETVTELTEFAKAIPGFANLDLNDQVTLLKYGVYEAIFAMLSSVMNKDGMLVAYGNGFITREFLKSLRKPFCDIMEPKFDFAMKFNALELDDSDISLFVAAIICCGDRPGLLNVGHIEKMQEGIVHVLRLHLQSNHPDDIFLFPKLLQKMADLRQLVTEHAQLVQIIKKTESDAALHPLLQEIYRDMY
Put plainly: Cell-based GAL4 transactivation assay in HEK293 cells, PPARα LBD. To be noted: HEK293, 24 h; read-out: EC50, PPARα transcriptional activity. The source says:
To determine the transcriptional activity of PBI-4547, a cell-based GAL4 transactivation assay in HEK293 cells transfected with either PPARα, PPARδ, or PPARγ LBD was used. […] However, PBI-4547 only partially activated PPARγ transcriptional activity, with a relative maximal efficacy of 38% of the control agonist rosiglitazone.
Generation of the Gαi2, Gαq, and GPR40/β-arrestin-2 BRET biosensors have been described previously. A plasmid encoding the human GPR120-L (long isoform) cDNA was obtained from R&D Systems. GPR120-S (short isoform) was generated by replacing the BglII-BsgI fragment from GPR120-L by a gBlock gene fragment (Integrated DNA Technologies, Coralville, IA) lacking the DNA sequence corresponding to the extra 16 amino acids found in the third intracellular loop of the long form. The GPR120-GFP10 construct was generated by inserting PCR-amplified GPR120-S (without its stop codon) in place of GPR40 in the GPR40-GFP10 plasmid. […]
HEK293 cells were co-transfected with pGL4.35[luc2P/9XGAL4UAS/Hygro] and GAL4-PPAR-Rluc plasmids, and after 24 h of incubation were treated with compounds for 24 h. Luciferase activity was determined with the Dual Glo luciferase assay (Promega). Firefly luminescence was normalized to the constitutively expressed Renilla luminescence, and results expressed as fold induction of vehicle control.

In assay [2] the test system is BDL rat. Kind of assay: Bile duct ligation (BDL)-induced liver fibrosis. Type of assay: in vivo. The source says: Since fibrosis contributes directly to the progression from NAFLD to NASH, we next evaluated the effect of PBI-4547 pro-fibrotic gene expression. […] Pro-inflammatory genes were not modulated by treatment with PBI-4547. […] As liver fibrosis was relatively mild in HFD-fed mice, we performed separate studies to evaluate the antifibrotic effect of PBI-4547, in rodent models of carbon tetrachloride (CCl4)- and bile duct ligation (BDL)-induced liver fibrosis.

Molecules are shown by their SMILES.

Take `CCCCCc1cc(CCCCC)cc(CC(=O)[O-])c1.[Na+]` [PBI-4547, 2-[3,5-dipentylphenyl]acetate sodium salt]: the 50% effective concentration (EC50) in assay [1] is 42 µM. The liver collagen deposition entry in assay [2] is recorded as “significantly decreased”.

Values taken from paper PMC7391726, “Fatty acid mimetic PBI-4547 restores metabolic homeostasis via GPR84 in mice with non-alcoholic fatty liver disease” (Scientific Reports, 2020).
